Test results reported in patent US10065990B2, “Cyclic peptide compound, and preparation method, pharmaceutical composition and use thereof” (HANGZHOU GUANYU BIO-MEDICAL CO., LTD, priority 2013, dated 2018).
Where two headings read alike, the source gives them in different places.

Columns and labels:
[1] = biological target: T1, HDAC7 (Homo sapiens, UniProt Q8WUI4); test: HDAC biochemical activity measurement (fluorescent substrate deacetylation);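 also: fluorogenic deacetylation assay using acetyl-lysine substrate at 20 µM, enzyme and compound incubated 30 min at 37 °C, then developer added, fluorescence read at 360/460 nm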; conditions: HDAC7; 37° C. 30 minutes
T1 sequence (Q8WUI4 1-952): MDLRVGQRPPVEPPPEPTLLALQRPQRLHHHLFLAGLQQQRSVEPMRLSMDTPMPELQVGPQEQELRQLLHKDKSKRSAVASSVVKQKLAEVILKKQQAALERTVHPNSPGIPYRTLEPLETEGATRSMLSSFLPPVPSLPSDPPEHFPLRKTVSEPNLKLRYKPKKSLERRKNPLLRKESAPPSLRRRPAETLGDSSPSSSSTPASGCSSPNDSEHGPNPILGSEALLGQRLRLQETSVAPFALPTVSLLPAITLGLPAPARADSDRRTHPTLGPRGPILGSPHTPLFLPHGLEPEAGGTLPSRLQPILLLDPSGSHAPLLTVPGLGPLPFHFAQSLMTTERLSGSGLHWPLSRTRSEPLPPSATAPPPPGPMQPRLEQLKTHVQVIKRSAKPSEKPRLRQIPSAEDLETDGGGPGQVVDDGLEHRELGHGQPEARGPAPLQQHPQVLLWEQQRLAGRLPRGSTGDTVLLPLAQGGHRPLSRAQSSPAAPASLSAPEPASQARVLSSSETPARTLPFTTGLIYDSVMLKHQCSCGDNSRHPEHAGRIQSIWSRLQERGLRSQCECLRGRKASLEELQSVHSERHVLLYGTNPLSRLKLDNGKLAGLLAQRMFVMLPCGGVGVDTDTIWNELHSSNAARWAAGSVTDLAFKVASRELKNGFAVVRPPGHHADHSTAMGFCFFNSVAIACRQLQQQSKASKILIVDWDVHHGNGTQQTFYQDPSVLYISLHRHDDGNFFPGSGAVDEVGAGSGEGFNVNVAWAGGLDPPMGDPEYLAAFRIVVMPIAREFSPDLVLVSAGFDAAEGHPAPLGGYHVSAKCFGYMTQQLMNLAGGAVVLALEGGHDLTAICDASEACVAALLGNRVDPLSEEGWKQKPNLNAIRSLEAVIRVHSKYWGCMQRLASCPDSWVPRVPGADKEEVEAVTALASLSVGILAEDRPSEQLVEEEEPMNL

[2] = tested on: N-87 (human gastric cancer cells); test: MTT cancer cell growth inhibition; assay type: cell-based; conditions: read-out: GI50 N-87
From the text: (§1) MTT assay principle is yellow MTT can penetrate membrane into the cell, succinic dehydrogenase of the mitochondria in living cells can make exogenous MTT reduction of insoluble in water of blue-violet acicular formazan for crystallization and deposition in the cell, crystallization can be dissolved dimethyl sulfoxide (DMSO) solution, detected its absorbance at 490 nm/570 nm wavelength by enzyme-linked immunosorbent assay, which can reflect the number of cells.
(§2) Using DMEM+10% FBS culture medium or using 1640+10% FBS culture, respectively.
(§3) a) Cells were seeded in 96-well plates with the inoculation of 1500/well, 190 μl/hole, 37° C., 5% of CO2 incubator overnight;
(§4) b) The next day each well was added 10 μl of different drugs. The final concentration of drug was 10^−5˜10^−10M, three parallel holes; 37° C., 5% CO2 culture incubator for 72 hours incubation;
(§5) c) Per well was added 20 μl 5 mg/ml of MTT, 37° C., 5% CO2 culture incubator for 4 hours incubation;
(§6) d) The supernatant was discarded. Each well was added 100 μl of DMSO and oscillation;
(§7) e) 570 nm readings. Calculate cell viability. GI50 calculation based on the results.

[3] = tested on: DU145 (human prostate cancer cells); test: MTT cancer cell growth inhibition; assay type: cell-based; conditions: Homo sapiens, DU-145, 72 h, read-out: GI50 Du1
From the text: as §1, §2, §3, §4, §5, §6, §7

[4] = tested on: Hela (human cervical cancer cells); test: MTT cancer cell growth inhibition; assay type: cell-based; conditions: read-out: GI50 Hela
From the text: as §1, §2, §3, §4, §5, §6, §7

[5] = tested on: KBM5-T315I (human chronic myelogenous leukemia); test: MTT cancer cell growth inhibition; assay type: cell-based; conditions: Homo sapiens, 72 h, read-out: GI50 KBM5-T315I
From the text: as §1, §2, §3, §4, §5, §6, §7

[6] = tested on: MOLT-4 (human acute lymphoblastic leukemia cells); test: MTT cancer cell growth inhibition; assay type: cell-based; conditions: Homo sapiens, MOLT-4, 72 h, read-out: GI50 Mol
From the text: as §1, §2, §3, §4, §5, §6, §7

[7] = tested on: PANC-1 (Pac-1, human pancreatic cancer cells); test: MTT cancer cell growth inhibition; assay type: cell-based; conditions: Homo sapiens, PANC-1, 72 h, read-out: GI50 PAN
From the text: as §1, §2, §3, §4, §5, §6, §7

[8] = tested on: H1975 (non-small cell lung adenocarcinoma); test: MTT cancer cell growth inhibition; assay type: cell-based; conditions: Homo sapiens, NCI-H1975, 72 h, read-out: GI50 H1975
From the text: as §1, §2, §3, §4, §5, §6, §7

[9] = tested on: SGC-7901 (human gastric cancer cells); test: MTT cancer cell growth inhibition; assay type: cell-based; conditions: read-out: GI50 SGC-7901
From the text: as §1, §2, §3, §4, §5, §6, §7

[10] = tested on: lncap (prostate cancer cells); test: MTT cancer cell growth inhibition; assay type: cell-based; conditions: read-out: GI50 lnca
From the text: as §1, §2, §3, §4, §5, §6, §7

[11] = tested on: BGC-823 (human gastric cancer cells); test: MTT cancer cell growth inhibition; assay type: cell-based; conditions: read-out: GI50 BG
From the text: as §1, §2, §3, §4, §5, §6, §7

[12] = tested on: HT1080 (human fibrosarcoma cells); test: MTT cancer cell growth inhibition; assay type: cell-based; conditions: Homo sapiens, HT-1080, 72 h, read-out: GI50 HT1
From the text: as §1, §2, §3, §4, §5, §6, §7

[13] = tested on: K562 (human leukemia cells); test: MTT cancer cell growth inhibition; assay type: cell-based; conditions: read-out: GI50 K562
From the text: as §1, §2, §3, §4, §5, §6, §7

[14] = tested on: MDA-MB-231 (breast cancer cells); test: MTT cancer cell growth inhibition; assay type: cell-based
From the text: as §1, §2, §3, §4, §5, §6, §7

[15] = tested on: HCC827 (human non-small cell lung cancer cells); test: MTT cancer cell growth inhibition; assay type: cell-based; conditions: Homo sapiens, HCC827, 72 h, read-out: GI50 HCC827
From the text: as §1, §2, §3, §4, §5, §6, §7

[16] = tested on: Bel-7402 (human hepatoma cells); test: MTT cancer cell growth inhibition; assay type: cell-based; conditions: Homo sapiens, Bel-7402, 72 h, read-out: GI50 Bel-7402
From the text: as §1, §2, §3, §4, §5, §6, §7

[17] = tested on: U937 (human leukemia cells); test: MTT cancer cell growth inhibition; assay type: cell-based; conditions: Homo sapiens, U-937, 72 h, read-out: GI50 U93
From the text: as §1, §2, §3, §4, §5, §6, §7

[18] = tested on: KBM-5 (human chronic myelogenous leukemia); test: MTT cancer cell growth inhibition; assay type: cell-based; conditions: read-out: GI50 KBM-5
From the text: as §1, §2, §3, §4, §5, §6, §7

[19] = tested on: A549 (human lung cancer cells); test: MTT cancer cell growth inhibition; assay type: cell-based; conditions: Homo sapiens, A549, 72 h, read-out: GI50 A54
From the text: as §1, §2, §3, §4, §5, §6, §7

[20] = tested on: MCF-7 (human breast cancer cells); test: MTT cancer cell growth inhibition; assay type: cell-based; conditions: Homo sapiens, MCF7, 72 h, 72 hours incubation, read-out: GI50 MCF
From the text: as §1, §2, §3, §4, §5, §6, §7

[21] = tested on: Huh-7 (human hepatoma cells); test: MTT cancer cell growth inhibition; assay type: cell-based; conditions: Homo sapiens, Huh-7, 72 h, read-out: GI50 Huh-7
From the text: as §1, §2, §3, §4, §5, §6, §7

[22] = Homo sapiens, 72 h, MTT, 72 hours incubation, N-87 cells
[23] = MTT, 72 hours incubation, KBM5-T315I cells
[24] = MTT, 72 hours incubation, H1975 cells
[25] = Homo sapiens, SGC-7901, 72 h, MTT, 72 hours incubation, SGC-7901 cells
[26] = Homo sapiens, K562, 72 h, MTT, 72 hours incubation, K562 cells
[27] = Homo sapiens, MDA-MB-231, 72 h, read-out: GI50 MDA-MB-231, MTT, 72 hours incubation, MDA-MB-231 cells
[28] = MTT, 72 hours incubation, HCC827 cells
[29] = MTT, 72 hours incubation, Bel-7402 cells
[30] = Homo sapiens, KBM5, 72 h, MTT, 72 hours incubation, KBM-5 cells
[31] = MTT, 72 hours incubation, Huh-7 cells
[32] = DU145 cells, MTT, 72 hours incubation
[33] = MOLT-4 cells, MTT, 72 hours incubation
[34] = PANC-1 cells, MTT, 72 hours incubation
[35] = HT1080 cells, MTT, 72 hours incubation
[36] = U937 cells, MTT, 72 hours incubation
[37] = A549 cells, MTT, 72 hours incubation

| Compound | IC50 HDAC7 [1] | GI50 [2, 22] [nM] | GI50 [5, 23] [nM] | GI50 [8, 24] [nM] | GI50 [9, 25] [nM] | GI50 [13, 26] [nM] | GI50 [14, 27] [nM] | GI50 [15, 28] [nM] | GI50 [16, 29] [nM] | GI50 [18, 30] [nM] | GI50 [21, 31] [nM] | GI50 [3, 32] [nM] | GI50 [6, 33] [nM] | GI50 [7, 34] [nM] | GI50 [12, 35] [nM] | GI50 [17, 36] [nM] | GI50 [19, 37] [nM] | also measured |
| --- | --- | --- | --- | --- | --- | --- | --- | --- | --- | --- | --- | --- | --- | --- | --- | --- | --- | --- |
| C/C=C1\NC(=O)c2cc(F)cc(n2)CNC(=O)C[C@@H](/C=C/CCSC(C)=O)OC(=O)[C@@H](C)NC1=O [Compound 101] | no activity | 26 | 36 | 69 | 48 | 21 | 52 | 39 | 45 | 41 | 36 |  |  |  |  |  |  | GI50 ([3]; MTT, 72 hours incubation): 30 nM; GI50 ([4]; Homo sapiens, HeLa, 72 h, MTT, 72 hours incubation): 40 nM; GI50 ([6]; MTT, 72 hours incubation): 20 nM; GI50 ([7]; MTT, 72 hours incubation): 40 nM; GI50 ([10]; Homo sapiens, LNCaP, 72 h, MTT, 72 hours incubation): 20 nM; GI50 ([11]; Homo sapiens, BGC-823, 72 h, MTT, 72 hours incubation): 30 nM; GI50 ([12]; MTT, 72 hours incubation): 40 nM; GI50 ([17]; MTT, 72 hours incubation): 50 nM; GI50 ([19]; MTT, 72 hours incubation): 70 nM; GI50 [20]: 20 nM |
| O=C(CCCCCCC(=O)Nc1ccccc1)NO [SAHA, suberoylanilide hydroxamic acid, reference compound] | no activity |  |  |  |  |  |  |  |  |  |  |  |  |  |  |  |  | GI50 ([2]; Homo sapiens, 72 h): 13200 nM; GI50 [3]: 15200 nM; GI50 ([4]; Homo sapiens, HeLa, 72 h): 30200 nM; GI50 [5]: 86700 nM; GI50 [6]: 10000 nM; GI50 [7]: 7620 nM; GI50 [8]: 15200 nM; GI50 ([9]; Homo sapiens, SGC-7901, 72 h): 12500 nM; GI50 ([10]; Homo sapiens, LNCaP, 72 h): 4610 nM; GI50 ([11]; Homo sapiens, BGC-823, 72 h): 5230 nM; GI50 [12]: 3970 nM; GI50 ([13]; Homo sapiens, K562, 72 h): 10100 nM; GI50 ([14]; Homo sapiens, MDA-MB-231, 72 h, read-out: GI50 MDA-MB-231): 22500 nM; GI50 [15]: 16700 nM; GI50 [16]: 12700 nM; GI50 [17]: 2350 nM; GI50 ([18]; Homo sapiens, KBM5, 72 h): 11200 nM; GI50 [19]: 8530 nM; GI50 [21]: 18300 nM |
| C/C=C1\NC(=O)c2cc(SC)cc(n2)CNC(=O)C[C@@H](/C=C/CCSC(C)=O)OC(=O)[C@H](C)NC1=O [Compound 184] | no activity |  | 43 | 58 |  |  |  | 62 | 56 |  | 38 | 60 | 30 | 60 | 80 | 30 | 110 | GI50 ([2]; MTT, 72 hours incubation, N-87 cells): 42 nM; GI50 ([4]; Hela cells, MTT, 72 hours incubation): 20 nM; GI50 ([9]; MTT, 72 hours incubation, SGC-7901 cells): 11 nM; GI50 ([10]; lncap cells, MTT, 72 hours incubation): 20 nM; GI50 ([11]; BGC-823 cells, MTT, 72 hours incubation): 50 nM; GI50 ([13]; MTT, 72 hours incubation, K562 cells): 23 nM; GI50 ([14]; read-out: GI50 MDA-MB-231, MTT, 72 hours incubation, MDA-MB-231 cells): 74 nM; GI50 ([18]; MTT, 72 hours incubation, KBM-5 cells): 78 nM |
| C=C1NC(=O)c2ccc(SC)c(n2)CNC(=O)C[C@@H](/C=C/CCSC(C)=O)OC(=O)[C@H](C(C)C)NC1=O [Compound 206] | no activity | 97 | 39 | 75 | 82 | 61 | 76 | 12 | 48 | 27 | 39 | 10 | 20 | 20 | 10 | 60 | 50 | GI50 ([10]; Homo sapiens, LNCaP, 72 h, lncap cells, MTT, 72 hours incubation): 70 nM; GI50 ([11]; Homo sapiens, BGC-823, 72 h, BGC-823 cells, MTT, 72 hours incubation): 20 nM; GI50 ([20]; MCF-7 cells): 30 nM |
